Reference: ChEMBL document CHEMBL6177991, “Discovery of P11-2: A Potent First-in-Class MNK1-Targeting PROTAC Degrader for the Treatment of Cancer” (J Med Chem, 2025)
The source made the active and inactive calls. The calls are words filed in the database; no cut-off is given here.

Columns and labels:
[1] = Oral bioavailability in male Sprague-Dawley rat at 20 mg/kg measured up to 24 hrs by LC-MS analysis; assay type: ADME, organism-based; conditions: in vivo
MV4-11 [2] = test: Induction of apoptosis in human MV4-11 cells assessed as necrotic cells at 100 nM incubated for 24 hrs by Annexin V-FITC/PI dual staining based flow cytometric analysis (reference value: 0.16 %); assay type: functional
[3] = Toxicity in male ICR mouse assessed as change in serum DBIL level at 100 mg/kg, ip measured after 14 days; assay type: organism-based; conditions: in vivo, 336 h, time 14 day
MV4-11 [4] = test: Upregulation of PI3K-Akt pathway related protein expression in human MV4-11 cells by KEGG analysis; assay type: functional, cell-based
Mus musculus = test: In vivo induction of MNK2 degradation in human MV4-11 cells xenografted in nude female NSG mouse at 20 mg/kg, ip qd administrated for 16 days; assay type: functional, organism-based; conditions: time 16.0 day
[5] = Half life in male Sprague-Dawley rat at 5 mg/kg, ip measured up to 24 hrs by LC-MS analysis; assay type: ADME, organism-based; conditions: in vivo
[6] = Half life in male Sprague-Dawley rat at 20 mg/kg, po measured up to 24 hrs by LC-MS analysis; assay type: ADME, organism-based; conditions: in vivo
MV4-11 [7] = test: Induction of apoptosis in human MV4-11 cells assessed as late apoptotic cells at 30 nM incubated for 24 hrs by Annexin V-FITC/PI dual staining based flow cytometric analysis (reference value: 1.48 %); assay type: functional
[8] = Clearance in male Sprague-Dawley rat at 1 mg/kg, iv measured up to 24 hrs by LC-MS analysis; assay type: ADME, organism-based; conditions: in vivo
MV4-11 [9] = test: Antitumor activity against human MV4-11 cells xenografted in nude female NSG mouse assessed as tumor growth inhibition at 20 mg/kg, ip qd administrated for 16 days by caliper method relative to control; assay type: functional; conditions: MV4-11, 384 h, time 16 day, read-out: TGI
[10] = Tmax in male Sprague-Dawley rat at 5 mg/kg, ip measured up to 24 hrs by LC-MS analysis; assay type: ADME, organism-based; conditions: in vivo
MV4-11 [11] = test: Induction of apoptosis in human MV4-11 cells assessed as necrotic cells at 30 nM incubated for 24 hrs by Annexin V-FITC/PI dual staining based flow cytometric analysis (reference value: 0.16 %); assay type: functional
MV4-11 [12] = test: Downregulation of C9orf40 expression level in human MV4-11 cells at 300 nM incubated for 24 hrs by DIA-based quantitative proteomics analysis; assay type: functional, cell-based
[13] = Hepatotoxicity in nude female NSG mouse xenografted with human MV4-11 cells assessed as change in serum TBIL level at 20 mg/kg, ip qd administrated for 16 days; assay type: toxicity, organism-based; conditions: in vivo, 384 h, time 16 day
[14] = Toxicity in male ICR mouse assessed as change in serum uric acid level at 100 mg/kg, ip measured after 14 days; assay type: organism-based; conditions: in vivo, 336 h, time 14 day
MV4-11 [15] = test: Induction of cell cycle arrest in human MV4-11 cells assessed as decrease in accumulation of cells at G2 phase incubated for 24 hrs by PI staining based flow cytometric analysis; assay type: functional; conditions: dose 30-300 µM
MV4-11 [16] = test: Induction of apoptosis in human MV4-11 cells assessed as viable cells at 30 nM incubated for 24 hrs by Annexin V-FITC/PI dual staining based flow cytometric analysis (reference value: 94.9 %); assay type: functional; conditions: read-out: Activity
MV4-11 [17] = test: Induction of apoptosis in human MV4-11 cells assessed as early apoptotic cells at 100 nM incubated for 24 hrs by Annexin V-FITC/PI dual staining based flow cytometric analysis (reference value: 3.42 %); assay type: functional
MV4-11 [18] = test: Upregulation of ubiquitin-mediated proteolysis pathway related protein expression in human MV4-11 cells by KEGG analysis; assay type: functional, cell-based
[19] = Toxicity in male ICR mouse assessed as change in serum TBIL level at 100 mg/kg, ip measured after 14 days; assay type: organism-based; conditions: in vivo, 336 h, time 14 day
[20] = Toxicity in male ICR mouse assessed as change in serum AST level at 100 mg/kg, ip measured after 14 days; assay type: organism-based; conditions: in vivo, 336 h, time 14 day
MV4-11 [21] = test: Upregulation of ubiquitin-mediated protein degradation pathway related protein expression in human MV4-11 cells by GO analysis; assay type: functional, cell-based
[22] = Cmax in male Sprague-Dawley rat at 5 mg/kg, ip measured up to 24 hrs by LC-MS analysis; assay type: ADME, organism-based; conditions: in vivo
MV4-11 [23] = test: Upregulation of mTOR pathway related protein expression in human MV4-11 cells by KEGG analysis; assay type: functional, cell-based
MV4-11 [24] = test: Induction of cell cycle arrest in human MV4-11 cells assessed as increase in accumulation of cells at G1 phase at 30 to […] incubated for 24 hrs by PI staining based flow cytometric analysis; assay type: functional; conditions: dose lower 30.0 µM
[25] = AUC (0 to t) in male Sprague-Dawley rat at 1 mg/kg, iv measured up to 24 hrs by LC-MS analysis; assay type: ADME, organism-based; conditions: in vivo
MV4-11 [26] = test: Upregulation of G2/M transition pathway related protein expression in human MV4-11 cells by GO analysis; assay type: functional, cell-based
MDA-MB-231 = test: Anti-proliferative activity against human MDA-MB-231 cells measured after 96 hrs by CCK8 assay; conditions: MDA-MB-231, 96 h
[27] = Tmax in male Sprague-Dawley rat at 20 mg/kg, po measured up to 24 hrs by LC-MS analysis; assay type: ADME, organism-based; conditions: in vivo
[28] = target: Protein cereblon/MAP kinase-interacting serine/threonine-protein kinase 2 (Homo sapiens, UniProt Q96SW2+Q9HBH9); test: PROTAC activity at CRBN/MNK2 in human MV4-11 cells assessed as inhibition of phosphorylated eIF4E level incubated for 24 hrs by immunoblot analysis; assay type: cell-based
Chain of Protein cereblon/MAP kinase-interacting serine/threonine-protein kinase 2 (Q9HBH9 whole entry): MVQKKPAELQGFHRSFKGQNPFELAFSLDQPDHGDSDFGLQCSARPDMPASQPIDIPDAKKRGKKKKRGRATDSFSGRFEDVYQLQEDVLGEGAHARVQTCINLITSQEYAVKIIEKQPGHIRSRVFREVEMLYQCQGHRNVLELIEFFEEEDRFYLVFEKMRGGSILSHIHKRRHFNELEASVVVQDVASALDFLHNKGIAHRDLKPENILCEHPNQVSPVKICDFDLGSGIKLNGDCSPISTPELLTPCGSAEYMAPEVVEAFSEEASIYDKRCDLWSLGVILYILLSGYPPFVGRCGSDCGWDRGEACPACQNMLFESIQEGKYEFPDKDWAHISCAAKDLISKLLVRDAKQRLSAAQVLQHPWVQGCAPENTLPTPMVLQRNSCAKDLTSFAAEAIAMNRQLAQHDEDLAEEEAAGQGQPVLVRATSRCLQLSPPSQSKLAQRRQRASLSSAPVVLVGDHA
Chain of Protein cereblon/MAP kinase-interacting serine/threonine-protein kinase 2 (Q96SW2 whole entry): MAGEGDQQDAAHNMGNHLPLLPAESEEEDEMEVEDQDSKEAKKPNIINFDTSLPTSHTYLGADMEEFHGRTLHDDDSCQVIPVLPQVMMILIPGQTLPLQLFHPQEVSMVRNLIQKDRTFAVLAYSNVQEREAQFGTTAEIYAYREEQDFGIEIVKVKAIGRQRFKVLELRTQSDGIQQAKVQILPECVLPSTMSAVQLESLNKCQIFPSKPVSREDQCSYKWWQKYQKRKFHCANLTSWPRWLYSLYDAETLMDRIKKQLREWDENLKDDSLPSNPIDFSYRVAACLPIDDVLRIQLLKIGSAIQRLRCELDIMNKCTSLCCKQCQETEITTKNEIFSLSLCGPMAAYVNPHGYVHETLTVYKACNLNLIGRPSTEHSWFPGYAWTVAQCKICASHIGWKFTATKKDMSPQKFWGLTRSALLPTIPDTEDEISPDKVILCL

[29] = Toxicity in male ICR mouse assessed as change in serum creatinine level at 100 mg/kg, ip measured after 14 days; assay type: organism-based; conditions: in vivo, 336 h, time 14 day
[30] = Toxicity in nude female NSG mouse xenografted with human MV4-11 cells assessed as change in body weight at 20 mg/kg, ip qd administrated for 16 days; assay type: organism-based; conditions: in vivo, 384 h, time 16 day
[31] = Toxicity in male ICR mouse assessed as histopathological change in lung at 100 mg/kg, ip measured after 14 days by hematoxylin and eosin staining based analysis; assay type: organism-based; conditions: in vivo, 336 h, time 14 day
MV4-11 [32] = test: Induction of MNK2 degradation in human MV4-11 cells at 10 to 1000 nM incubated for 24 hrs by immunoblot analysis; assay type: cell-based; conditions: dose 10-1000 nM
[33] = Cmax in male Sprague-Dawley rat at 20 mg/kg, po measured up to 24 hrs by LC-MS analysis; assay type: ADME, organism-based; conditions: in vivo
[34] = Half life in male Sprague-Dawley rat at 1 mg/kg, iv measured up to 24 hrs by LC-MS analysis; assay type: ADME, organism-based; conditions: in vivo
MV4-11 [35] = test: Downregulation of SBNO2 expression level in human MV4-11 cells at 300 nM incubated for 24 hrs by DIA-based quantitative proteomics analysis; assay type: functional, cell-based
MV4-11 [36] = test: Upregulation of cell cycle regulation related protein expression in human MV4-11 cells by GO analysis; assay type: functional, cell-based
MV4-11 [37] = test: Induction of apoptosis in human MV4-11 cells assessed as viable cells at 300 nM incubated for 24 hrs by Annexin V-FITC/PI dual staining based flow cytometric analysis (reference value: 94.9 %); assay type: functional; conditions: read-out: Activity
[38] = Toxicity in nude female NSG mouse xenografted with human MV4-11 cells assessed as change in serum AST level at 20 mg/kg, ip qd administrated for 16 days; assay type: organism-based; conditions: in vivo, 384 h, time 16 day

bioavailability [1]: 2.1% | half-life [5]: 5.2 h | half-life [6]: 7.1 h | clearance [8]: 2.38 mL/min/kg | Tmax [10]: 0.5 h | Cmax [22]: 1970 ng/mL | AUC(0-t) at 24 h [25]: 7020 ng·h/mL | IC50 (MDA-MB-231): 2060 nM | Tmax [27]: 1.4 h | IC50 [28]: 22.1 nM | Cmax [33]: 160 ng/mL | half-life [34]: 4.3 h
SMILES: O=C1CCC(N2Cc3c(NC(=O)CCCCCC(=O)N4CCC(C(=O)Nc5ncc(-c6ccccc6)s5)CC4)cccc3C2=O)C(=O)N1 (stereo not given)
Activity (MV4-11 [2]): 0.69% | Activity [3]: Non-toxic | Activity (MV4-11 [4]): Active | Activity (Mus musculus): inactive | Activity (MV4-11 [7]): 7.49% | inhibition in vivo at 20 mg/kg (MV4-11 [9]): > 90% | Activity (MV4-11 [11]): 0.27% | Activity (MV4-11 [12]): Active | Activity [13]: Non-toxic | Activity [14]: Non-toxic | Activity (MV4-11 [15]): Dose-dependent-effect | viability at 0.03 µM (MV4-11 [16]): 85.8% | Activity (MV4-11 [17]): 14.1% | Activity (MV4-11 [18]): Active | Activity [19]: Non-toxic | Activity [20]: Non-toxic | Activity (MV4-11 [21]): Active | Activity (MV4-11 [23]): Active | Activity (MV4-11 [24]): Active | Activity (MV4-11 [26]): Active | Activity [29]: Non-toxic | Activity [30]: Non-toxic | Activity [31]: Non-toxic | Activity (MV4-11 [32]): inactive | Activity (MV4-11 [35]): Active | Activity (MV4-11 [36]): Active | viability at 0.3 µM (MV4-11 [37]): 28% | Activity [38]: Non-toxic
